# Test results taken from patent publication US8492540B2, “1,2,4,-triazin-3,5-dione compounds suitable for treating disorders that respond to modulation of the dopamine D3 receptor” (Abbott GmbH & Co. KG, priority 2007, dated 2013).
# pKi: −log10 of the molar value.
# Key:
# [1] = target: T1, human dopamine D3 receptors (Homo sapiens, UniProt P35462); assay: Dopamine D3 receptor binding, [125I]-iodosulpride displacement; settings: membranes of HEK-293 cells, 0.1 nM [125I]-iodosulpride
# T1 construct: expressed in transfected cells; membranes)
# T1 sequence (P35462 whole entry): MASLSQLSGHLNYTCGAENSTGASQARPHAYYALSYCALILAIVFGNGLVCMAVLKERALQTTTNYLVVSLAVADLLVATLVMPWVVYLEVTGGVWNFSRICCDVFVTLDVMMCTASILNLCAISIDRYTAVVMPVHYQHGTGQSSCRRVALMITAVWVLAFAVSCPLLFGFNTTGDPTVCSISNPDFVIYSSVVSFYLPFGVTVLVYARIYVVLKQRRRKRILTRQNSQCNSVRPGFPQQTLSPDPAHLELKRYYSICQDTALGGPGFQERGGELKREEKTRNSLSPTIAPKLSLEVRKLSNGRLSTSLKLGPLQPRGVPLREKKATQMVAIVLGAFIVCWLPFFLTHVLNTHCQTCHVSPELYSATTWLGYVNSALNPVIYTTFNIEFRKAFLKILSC
# Method: (§1) Each as-say mixture was run in triplicate. • The incubation buffer contained 50 mM tris, 120 mM NaCl, 5 mM KCl, 2 mM CaCl2, 2 mM MgCl2 and 0.1% bovine serum albumin, 10 μM quinolone and 0.1% ascorbic acid (prepared fresh daily). […] Each assay mixture was run in triplicate. • The incubation buffer contained 50 mM tris, 120 mM NaCl, 5 mM KCl, 2 mM CaCl2, 2 mM MgCl2 and 0.1% bovine serum albumin. The buffer was adjusted to pH 7.4 with HCl. c) Measurement and Analysis: • After having been incubated at 25° C. for 60 minutes, the assay mixtures were filtered through a Whatman GF/B glass fiber filter under vacuum using a cell collecting device. The filters were transferred to scintillation viols using a filter transfer system. After 4 ml of Ultima Gold® (Packard) have been added, the samples were shaken for one hour and the radioactivity was then counted in a Beta-Counter (Packard, Tricarb 2000 or 2200CA).
# [2] = target: T2, human dopamine D2L receptors (long isoform) (Homo sapiens, UniProt P14416); assay: Dopamine D2L receptor binding, [125I] iodospiperone displacement; settings: ratio of Ki at human D2L to Ki at human D3, HEK-293 membranes
# T2 construct: expressed in transfected cells; membranes)
# T2 sequence (P14416 whole entry, canonical isoform): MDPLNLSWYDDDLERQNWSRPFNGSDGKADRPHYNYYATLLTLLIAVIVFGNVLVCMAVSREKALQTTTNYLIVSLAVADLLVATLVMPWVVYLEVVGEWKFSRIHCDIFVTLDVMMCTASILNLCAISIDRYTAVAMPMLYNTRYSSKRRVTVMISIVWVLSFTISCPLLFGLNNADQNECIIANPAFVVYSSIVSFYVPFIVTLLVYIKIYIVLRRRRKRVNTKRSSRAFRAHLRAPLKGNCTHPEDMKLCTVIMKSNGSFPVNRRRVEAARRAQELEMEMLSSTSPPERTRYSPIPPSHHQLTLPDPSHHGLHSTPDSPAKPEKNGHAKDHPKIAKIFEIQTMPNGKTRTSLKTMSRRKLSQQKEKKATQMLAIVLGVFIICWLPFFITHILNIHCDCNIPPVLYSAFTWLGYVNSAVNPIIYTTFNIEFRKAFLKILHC
# Method: as §1
pKi [1],"Selectivity vs. D2L, Ki(D2L)/Ki(D3) [2]",Compound
> 8.00,++ (++>20),"CC(C)(C)c1nc(N2CCN(CCCCn3ncc(=O)[nH]c3=O)CC2)cc(C(F)(F)F)n1.Cl [Example 1, 2-{4-[4-(2-tert-Butyl-6-trifluoromethyl-pyrimidin-4-yl)-piperazin-1-yl]butyl}-2H-[1,2,4]triazine-3,5-dione hydrochloride]"
> 8.00,++ (++>20),"CC(C)(C)c1nc(C(F)F)cc(N2CCN(CCCCn3ncc(=O)[nH]c3=O)CC2)n1.Cl [Example 2, 2-{4-[4-(2-tert-Butyl-6-difluoromethyl-pyrimidin-4-yl)-piperazin-1-yl]butyl}-2H-[1,2,4]triazine-3,5-dione hydrochloride]"
> 8.00,+++ (+++>50),"CCCc1cc(N2CCN(CCCCn3ncc(=O)[nH]c3=O)CC2)nc(C(C)(C)C)n1 [Example 3, 2-{4-[4-(2-tert-Butyl-6-propyl-pyrimidin-4-yl)-piperazin-1-yl]butyl}-2H-[1,2,4]triazine-3,5-dione]"
> 8.00,++ (++>20),"CC(C)(C)c1cc(N2CCN(CCCCn3ncc(=O)[nH]c3=O)CC2)nc(C(C)(C)C)n1.O=C(O)C(F)(F)F [Example 4, 2-{4-[4-(2,6-Di-tert-butyl-pyrimidin-4-yl)-piperazin-1-yl]butyl}-2H-[1,2,4]triazine-3,5-dione trifluoroacetate]"
> 8.00,++ (++>20),"CC(C)(C)c1nc(C2CCC2)cc(N2CCN(CCCCn3ncc(=O)[nH]c3=O)CC2)n1 [Example 5, 2-{4-[4-(2-tert-Butyl-6-cyclobutyl-pyrimidin-4-yl)-piperazin-1-yl]butyl}-2H-[1,2,4]triazine-3,5-dione]"
> 8.00,++ (++>20),"Cc1nn(CCCCN2CCN(c3cc(C(F)(F)F)nc(C(C)(C)C)n3)CC2)c(=O)[nH]c1=O.Cl [Example 6, 2-{4-[4-(2-tert-Butyl-6-trifluoromethyl-pyrimidin-4-yl)-piperazin-1-yl]butyl}-6-methyl-2H-[1,2,4]triazine-3,5-dione hydrochloride]"
> 8.00,++ (++>20),"CCCc1cc(N2CCN(CCCCn3nc(C)c(=O)[nH]c3=O)CC2)nc(C(C)(C)C)n1.Cl [Example 7, 2-{4-[4-(2-tert-Butyl-6-propyl-pyrimidin-4-yl)-piperazin-1-yl]butyl}-6-methyl-2H-[1,2,4]triazine-3,5-dione hydrochloride]"
